Results: patent US20030180248A1, “Cosmetic composition containing the extract of mountain ginseng adventitious roots” (priority 2001, published 2003)

System: transformed mouse fibroblast L929 cells
Assay: Cytotoxicity, Neutral Red uptake
Assay type: cell-based
Settings: 48 hours
Description: Extracts from tissue-cultured mountain ginseng adventitious roots, prepared in Examples 1 to 3, were examined for cytotoxicity, in comparison with a red ginseng extract and arbutin, which are conventionally used as skin-whitening materials.
After being recovered by trypsinization, the transformed mouse fibroblast L929 cells were suspended in DMEM supplemented with 2% BCS (bovine calf serum), and the suspension was aliquoted at a concentration of 2,500-3,000 cells/well into each well of 96 well tissue culture plates, followed by incubation at 37° C. for 48 hours in a 5% CO2 atmosphere. After substitution of the medium with a fresh, serum-free one, the cells were treated with the test materials shown in Table 2, below, and cultured for 48 hours. To each well, Neutral Red (50 μg/ml) was added, and reacted with cells for 3 hours. After completion of the accumulation of Neutral Red in live cells, the dye was fixed with the use of 1.0% formalin/1.0% CaCl2. Neutral Red was extracted from cells using 1.0% acetic acid/50% ethanol solution. The extracted Neutral Red was analyzed by ELISA to measure the cytotoxicity of the test materials according to concentrations.

## OC[C@H]1O[C@@H](Oc2ccc(O)cc2)[C@H](O)[C@@H](O)[C@@H]1O [Arbutin]
Neutral Red
  NR50: 0.29 w/w %
Concentration 0.001 w/w %
  Cytotoxicity (Neutral Red reading): 98
Concentration 0.01 w/w %
  Cytotoxicity (Neutral Red reading): 82
Concentration 0.1 w/w %
  Cytotoxicity (Neutral Red reading): 63
Concentration 1 w/w %
  Cytotoxicity (Neutral Red reading): 2
